Source: ChEMBL document CHEMBL1129086, “Design of a novel cognitive enhancer (8S, 10aS)-8-carbamoyl-1,2,3,6,7,8,9,10a-octahydro-5H,10H-pyrrolo[1,2-a][1,4]diazocin-5,10-dione” (1996)
Active and inactive are the calls of the source. The calls are words filed in the database; no cut-off is given here. Where a SMILES comes first, the peptide text is derived from it. Bridges are numbered along the chain shown (N, C = ends). [ ]: non-standard residue; d: D form. pGlu = O=C1CC[C@@H](C(=O)O)N1

Key:
[1] = species on record: Mus musculus; assay: Compound was tested for motor impairment in mice by neuropharmacological test; No effect; type: functional, organism-based
[2] = species on record: Mus musculus; assay: Compound was tested for myorelaxant action in mice by neuropharmacological test; No effect; type: functional, organism-based
[3] = species on record: Mus musculus; assay: Compound was tested for psychomotor activation on CNS in mice by neuropharmacological test; No effect; type: functional, organism-based; settings: Central nervous system
[4] = species on record: Mus musculus; assay: Compound was tested for sedative action in mice by neuropharmacological test; No effect; type: functional, organism-based
[5] = tested on: Rattus norvegicus; assay: Antiamnesic potency was discovered in the passive avoidance test in rats at a dose 0.1 mg/kg (p<0.05); Amnesia reversed; type: functional, organism-based; design: dose 0.1 mg/kg
[6] = tested on: Rattus norvegicus; assay: Antiamnesic potency was discovered in the passive avoidance test in rats at a dose 1.0 mg/kg (p<0.05); Amnesia reversed; type: functional, organism-based; design: dose 1 mg/kg
[7] = tested on: Rattus norvegicus; assay: Compound was tested for amnesia response against scopolamine induced rats by passive avoidance test at a dose 1 mg/kg; type: functional

Structure (SMILES) | Activity [1] | Activity [2] | Activity [3] | Activity [4] | Activity [5] | Activity [6] | Response [7]
CC(C)(C)OC(=O)N[C@@H](CCC(=O)O)C(=O)OCC(=O)NC(c1ccccc1)c1ccccc1 | inactive | inactive | inactive | inactive |  |  | 
NC(=O)CC[C@H](NC(=O)[C@@H]1CCC(=O)N1)C(=O)N1CCC[C@H]1C(N)=O ([pGlu]-Gln-Pro-NH2) | inactive | inactive | inactive | inactive |  |  | 
NC(=O)[C@@H]1CCC(=O)N2CCC[C@H]2C(=O)N1 (Pro-Glu-NH2; lactam N-2) | inactive | inactive | inactive | inactive | Amnesia reversed | Amnesia reversed | 83%
CC(C)(C)OC(=O)N[C@@H](CCC(=O)N1CCC[C@H]1C(=O)O)C(=O)OCC(=O)NC(c1ccccc1)c1ccccc1 | inactive | inactive | inactive | inactive |  |  | 
O=C(COC(=O)[C@@H]1CCC(=O)N2CCC[C@H]2C(=O)N1)NC(c1ccccc1)c1ccccc1 | inactive | inactive | inactive | inactive |  |  | 
NC(=O)[C@@H]1CCCN1C(=O)[C@H](Cc1c[nH]cn1)NC(=O)[C@@H]1CCC(=O)N1 | inactive | inactive | inactive | inactive |  |  | 
CC(C)(C)OC(=O)N[C@@H](CCC(=O)O)C(=O)O | inactive | inactive | inactive | inactive |  |  | 
